In the oligonucleotide strings, read from the 5' end, every base follows the letter of its sugar. An asterisk marks phosphorothioate; unmarked linkages are phosphodiester. Other units and linkages are bracketed, terminal groups are in braces. A string of capitals states the bases alone. d = 2'-deoxy (DNA); m = 2'-O-methyl; f = 2'-fluoro
Key:
Type in all cases: cell-based, human
AR-SV(3) = assay: AR protein knock-down by Western blot after siRNA transfection in 22RV1 cells: AR-SV(3); settings: 5 nM siRNA, 50 h post transfection, compared to controls
Experimental: (§1) In some instances, a set of AR siRNAs were identified that were predicted to be specific in human and non-human primates (NHP) and cross-reactive with NHPs but not rodent AR mRNA. To identify AR siRNAs that regulate both full length AR and clinically relevant AR splice variants, the search for AR siRNAs was focused primarily, but not exclusively, on exons 1, 2 and 3 of the AR gene, which are common to most AR isoforms. The resulting set of 50 AR siRNAs (Tables 1-3) was assessed in two prostate cancer lines that express high levels of either clinically relevant AR splice variants (22RV1, ATCC) or a full length AR T877A LBD mutant (LNCaP, ATCC). The response of LNCaP tumors in xenograft models to AR antagonists is known to correlate well with clinical responses.
(§2) To monitor their ability to downregulate various AR isoforms, each siRNA was formulated at a single final concentration of 5 nM with a commercially-available transfection reagent (Lipofectamine RNAiMAX, Life Technologies) according to the manufacturer's “forward transfection” instructions. At 50 h (22RV1) and 72 h (LNCaP) post transfection, cells were harvested, and lysed in RIPA buffer (Pierce) supplemented with HALT protease inhibitors (Pierce) using standard procedures. The protein concentration was determined using a BCA protein concentration kit (Pierce). To monitor AR levels in these lysates, proteins (30 ug/lane) were separated by PAGE on BOLT 4-12% Bis-Tris PA gels (Life Technologies), transferred to nitrocellulose using an iBlot dry blot system (Thermo Fisher), and probed with specific antibodies against a region of the N-terminal domain of human AR that is common in known clinically relevant splice variants (N20, Santa Cruz Biotech). A second antibody against α-Tubulin was used as control (P16, Santa Cruz Biotech). Levels of these proteins in the respective cell lysates were quantified on an Odyssey imaging system (LICOR) using appropriate secondary antibodies linked to IRDyes (800CW, 680RD).

AR mRNA [1] = assay: AR mRNA downregulation by RT-qPCR at 5 nM siRNA in 22RV1 cells; settings: 24 hrs post-transfection
Experimental: (§3) Focusing on siRNAs targeting AR sequences exons 1 and 2, the ability of these siRNAs to downregulate AR mRNA at a concentration of 5 nM was determined by RT-qPCR. For this purpose, siRNAs were transfected into 22RV1 and LNCaP cells as described above. At 24 hrs post-transfection, RNA was harvested from cells using a Qiagen RNeasy® Plus Mini Kit or Stratec InviTrap® RNA Cell HTS96 kit. The concentration of each isolated RNA was determined via A260 measurement using a NanoDrop spectrophotometer. RNA samples were reverse transcribed to cDNA using the High Capacity RNA to cDNA Kit (Life Technologies) according to the manufacturer's instructions. cDNA samples were then quantified by qPCR using AR-specific probes and results normalized to either endogenous β-actin or PPIB using the standard 2^−ΔΔCt method. These studies identified 6 siRNAs that at a concentration of 5 nM down regulated AR mRNA in 22RV1 and LNCaP cells by more than 80% compared to controls (Table 4).

AR mRNA [2] = assay: AR mRNA downregulation by RT-qPCR at 5 nM siRNA in LNCaP cells; settings: 24 hrs post-transfection
Experimental: as §3

AR-SV(2) = assay: AR protein knock-down by Western blot after siRNA transfection in 22RV1 cells: AR-SV(2); settings: 5 nM siRNA, 50 h post transfection, compared to controls
Experimental: as §1, §2

AR FL(1) = assay: AR protein knock-down by Western blot after siRNA transfection in 22RV1 cells: AR FL(1); settings: 5 nM siRNA, 50 h post transfection, compared to controls
Experimental: as §1, §2

[3] = system: AR FL (full length AR T877A LBD mutant); assay: AR protein knock-down by Western blot after siRNA transfection in LNCaP cells: AR FL; settings: 5 nM siRNA, 72 h post transfection, compared to controls
Experimental: as §1, §2

Row | Substance | % KD AR Protein 22RV1 AR-SV(3) (AR-SV(3)) [%] | % KD AR RNA 22RV1 (AR mRNA [1]) [%] | % KD AR RNA LNCaP (AR mRNA [2]) [%] | % KD AR Protein 22RV1 AR-SV(2) (AR-SV(2)) [%] | % KD AR Protein 22RV1 AR FL(1) (AR FL(1)) [%] | % KD AR Protein LNCaP AR FL [3] [%]
1 | XD-01813: AR siRNA with chemical modification, Id # 1201; sense X05321 (SEQ ID NO: 151), antisense X05322 (SEQ ID NO: 152) (sense mGmCfGmUfGmCfGmCfGmAfAmGfUmGfAmUfCmCfAdT*dT; antisense fUfGmGfAmUfCmAfCmUfUmCfGmCfGmCfAmCfGmCdT*dT) | 80 | 53 | 66 | 77 | 73 | 98
2 | XD-01851: AR siRNA with chemical modification, Id # 3217; sense X05397 (SEQ ID NO: 227), antisense X05398 (SEQ ID NO: 228) (sense mUmGfCmUfCmUfCmUfAmGfCmCfUmCfAmAfUmGfAdT*dT; antisense fUfCmAfUmUfGmAfGmGfCmUfAmGfAmGfAmGfCmAdT*dT) | 8 |  |  | 2 | 50 | 84
3 | XD-01852: AR siRNA with chemical modification, Id # 3218; sense X05399 (SEQ ID NO: 229), antisense X05400 (SEQ ID NO: 230) (sense mGmCfUmCfUmCfUmAfGmCfCmUfCmAfAmUfGmAfAdT*dT; antisense fUfUmCfAmUfUmGfAmGfGmCfUmAfGmAfGmAfGmCdT*dT) | 10 |  |  | 8 | 16 | 34
4 | XD-01853: AR siRNA with chemical modification, Id # 3310; sense X05401 (SEQ ID NO: 231), antisense X05402 (SEQ ID NO: 232) (sense mAmCfGmAfCmCfAmGfAmUfGmGfCmUfGmUfCmAfUdT*dT; antisense fAfUmGfAmCfAmGfCmCfAmUfCmUfGmGfUmCfGmUdT*dT) | 13 |  |  | −43 | 91 | 99
5 | XD-01854: AR siRNA with chemical modification, Id # 3416; sense X05403 (SEQ ID NO: 233), antisense X05404 (SEQ ID NO: 234) (sense mUmGfAmUfCmUfGmGfUmUfUmUfCmAfAmUfGmAfGdT*dT; antisense fCfUmCfAmUfUmGfAmAfAmAfCmCfAmGfAmUfCmAdT*dT) | 46 |  |  | 38 | 95 | 93
6 | XD-01855: AR siRNA with chemical modification, Id # 3462; sense X05405 (SEQ ID NO: 235), antisense X05406 (SEQ ID NO: 236) (sense mAmGfCmCfAmGfUmGfUmGfUmCfCmGfAmAfUmGfAdT*dT; antisense fUfCmAfUmUfCmGfGmAfCmAfCmAfCmUfGmGfCmUdT*dT) | −18 |  |  | −1 | 12 | 75
7 | XD-01856: AR siRNA with chemical modification, Id # 3469; sense X05407 (SEQ ID NO: 237), antisense X05408 (SEQ ID NO: 238) (sense mGmUfGmUfCmCfGmAfAmUfGmAfGmGfCmAfCmCfUdT*dT; antisense fAfGmGfUmGfCmCfUmCfAmUfUmCfGmGfAmCfAmCdT*dT) | −74 |  |  | −61 | 77 | 99
8 | XD-01857: AR siRNA with chemical modification, Id # 3473; sense X05409 (SEQ ID NO: 239), antisense X05410 (SEQ ID NO: 240) (sense mCmCfGmAfAmUfGmAfGmGfCmAfCmCfUmCfUmCfUdT*dT; antisense fAfGmAfGmAfGmGfUmGfCmCfUmCfAmUfUmCfGmGdT*dT) | 1 |  |  | −7 | 79 | 100
9 | XD-01858: AR siRNA with chemical modification, Id # 3475; sense X05411 (SEQ ID NO: 241), antisense X05412 (SEQ ID NO: 242) (sense mGmAfAmUfGmAfGmGfCmAfCmCfUmCfUmCfUmCfAdT*dT; antisense fUfGmAfGmAfGmAfGmGfUmGfCmCfUmCfAmUfUmCdT*dT) | 66 |  |  | 25 | 93 | 99
10 | XD-01859: AR siRNA with chemical modification, Id # 3481; sense X05413 (SEQ ID NO: 243), antisense X05414 (SEQ ID NO: 244) (sense mGmGfCmAfCmCfUmCfUmCfUmCfAmAfGmAfGmUfUdT*dT; antisense fAfAmCfUmCfUmUfGmAfGmAfGmAfGmGfUmGfCmCdT*dT) | −49 |  |  | −23 | 87 | 100
11 | XD-01860: AR siRNA with chemical modification, Id # 3629; sense X05415 (SEQ ID NO: 245), antisense X05416 (SEQ ID NO: 246) (sense mAmCfUmCfGmAfUmCfGmUfAmUfCmAfUmUfGmCfAdT*dT; antisense fUfGmCfAmAfUmGfAmUfAmCfGmAfUmCfGmAfGmUdT*dT) | 4 |  |  | −9 | 90 | 99
12 | XD-01861: AR siRNA with chemical modification, Id # 3779; sense X05417 (SEQ ID NO: 247), antisense X05418 (SEQ ID NO: 248) (sense mGmAfGmCfGmUfGmGfAmCfUmUfUmCfCmGfGmAfAdT*dT; antisense fUfUmCfCmGfGmAfAmAfGmUfCmCfAmCfGmCfUmCdT*dT) | 51 |  |  | 11 | 90 | 99
13 | XD-01862: AR siRNA with chemical modification, Id # 3781; sense X05419 (SEQ ID NO: 249), antisense X05420 (SEQ ID NO: 250) (sense mGmCfGmUfGmGfAmCfUmUfUmCfCmGfGmAfAmAfUdT*dT; antisense fAfUmUfUmCfCmGfGmAfAmAfGmUfCmCfAmCfGmCdT*dT) | 40 |  |  | 24 | 92 | 87

— patent publication US20220033434A1, “ANDROGEN RECEPTOR NUCLEIC ACIDS AND USES THEREOF” (Avidity Biosciences, Inc., priority 2016, published 2022)
